Measurements from patent US20020004072A1, “"COMPOSITION PROVIDING A SUSTAINED RELEASE OF L-HISTIDINE AND METHODS OF MANUFACTURE THEREOF"” (priority 1999, published 2002).

Assay: Bulk and tapped density measurement by standard pharmaceutical methods
Type: physicochemical
Description: Density measurements were carried out using standard pharmaceutical methods for the measurement of bulk and tapped density. A comparison of the apparent density of the freshly dispensed or bulk powder to that of powder after settling is shown in Table 4.

Bulk Density (freshly dispensed or bulk powder): 0.55 g/mL
Tapped Density (powder after settling): 0.79 g/mL
Compound: N[C@@H](Cc1c[nH]cn1)C(=O)O [L-Histidine]
